Measurements as given in patent US20070128217A1 (priority 2003, published 2007).

What was measured:
[1] = tested on: antibodies in sera from SARS patients (sera 1a, 1b, 2, 6, 37, 62, London, SARS-yellow, SARS-green); format: binding, human; design: Binding of serum 6 to linear peptides of protein X1 of SARS-CoV Urbani / Binding of serum 37 to linear peptides of protein X1 of SARS-CoV Urbani / Binding of serum 6 to looped/cyclic peptide (PEPSCAN-ELISA) / Binding of serum 37 to looped/cyclic peptide (PEPSCAN-ELISA) / Binding of serum 37 to looped/cyclic peptides of protein X1 of SARS-CoV Urbani / Binding of serum 6 to linear peptides of protein X2 / Binding of serum 37 to linear peptides of protein X2 / Binding of serum 37 to looped/cyclic peptides of protein X2 of SARS-CoV Urbani / Binding of serum 6 to linear peptides of protein M of SARS-CoV Urbani / Binding of serum 37 to linear peptides of protein M of SARS-CoV Urbani / Binding of serum 6 to looped/cyclic peptides of protein M of SARS-CoV Urbani / Binding of serum 37 to looped/cyclic peptides of protein M of SARS-CoV Urbani / Binding of serum 6 to linear peptides of protein X3 of SARS-CoV Urbani / Binding of serum 37 to linear peptides of protein X3 of SARS-CoV Urbani / Binding of serum 37 to looped/cyclic peptides of protein X3 of SARS-CoV Urbani / Binding of serum 6 to linear peptides of protein X4 of SARS-CoV Urbani / Binding of serum 37 to linear peptides of protein X4 of SARS-CoV Urbani / Binding of serum 37 to looped/cyclic peptides of protein X4 of SARS-CoV Urbani / Binding of serum 6 to linear peptides of protein X5 of SARS-CoV Urbani / Binding of serum 37 to linear peptides of protein X5 of SARS-CoV Urbani / Binding of serum 37 to looped/cyclic peptides of protein X5 of SARS-CoV Urbani / Binding of serum 6 to linear peptides of protein N of SARS-CoV Urbani / Binding of serum 37 to linear peptides of protein N of SARS-CoV Urbani / Binding of serum 6 to linear peptide (PEPSCAN-ELISA) / Binding of serum 1a to looped/cyclic peptides of protein N of SARS-CoV Urbani / Binding of serum 1b to looped/cyclic peptides of protein N of SARS-CoV Urbani / Binding of serum 2 to looped/cyclic peptides of protein N of SARS-CoV Urbani / Binding of serum 6 to looped/cyclic peptides of protein N of SARS-CoV Urbani / Binding of serum 37 to looped/cyclic peptides of protein N of SARS-CoV Urbani / Binding of serum 62 to looped/cyclic peptides of protein N of SARS-CoV Urbani / Binding of serum London to looped/cyclic peptides of protein N of SARS-CoV Urbani / Binding of serum SARS-green to looped/cyclic peptides of protein N of SARS-CoV Urbani: unit not given here
[2] = tested on: rabbit serum obtained by immunizing a rabbit with the SARS-CoV strain Frankfurt 1; format: binding; design: Binding of a rabbit serum to linear peptides / Binding of a rabbit serum to looped peptides / Rabbit serum linear peptides / Rabbit serum looped peptides / Binding of a rabbit serum to linear peptides of protein N of SARS-CoV Urbani (Rabbit serum linear peptides) / Binding of a rabbit serum to looped/cyclic peptides of protein N of SARS-CoV Urbani (Rabbit serum looped peptides): unit not given here
[3] = tested on: control sera (pooled serum of ten healthy LUMC hospital workers; commercial negative donor pooled serum from the Dutch bloodbank); format: binding, human; design: Binding of Control serum LUMC to linear peptides / Binding of Control serum Blood-bank to linear peptides / Binding of Control serum LUMC to looped peptides / Binding of Control Serum Blood-Bank to Looped peptides / Binding of Control serum LUMC to linear peptides of the protein M of SARS-CoV Urbani / Binding of Control serum Blood-bank to linear peptides of the protein M of SARS-CoV Urbani / Binding of Control serum LUMC to looped peptides of the protein M of SARS-CoV Urbani / Binding of Control Serum Blood-Bank to Looped peptides of the protein M of SARS-CoV Urbani: unit not given here

ASLPFGWLVIGVAFL
0.7: Binding of serum 1a to linear peptides of protein X1 of SARS-CoV Urbani [1]
0.4: Binding of serum 2 to looped/cyclic peptide (PEPSCAN-ELISA) [1] | Binding of serum 62 to looped/cyclic peptide (PEPSCAN-ELISA) [1] | Binding of serum SARS-yellow to linear peptides of protein X1 of SARS-CoV Urbani [1] | Binding of Control Serum Blood-Bank to Looped peptides [3]
1.4: Binding of a rabbit serum to linear peptides [2]
0.5: Binding of serum 1a to looped/cyclic peptide (PEPSCAN-ELISA) [1] | Binding of serum 1b to linear peptides of protein X1 of SARS-CoV Urbani [1] | Binding of serum 6 to linear peptides of protein X1 of SARS-CoV Urbani [1]
0.2: Binding of serum 6 to looped/cyclic peptide (PEPSCAN-ELISA) [1] | Binding of serum London to looped/cyclic peptide (PEPSCAN-ELISA) [1] | Binding of serum SARS-green to linear peptides of protein X1 of SARS-CoV Urbani [1] | Binding of serum SARS-green to looped/cyclic peptide (PEPSCAN-ELISA) [1]
0.3: Binding of serum 1b to looped/cyclic peptide (PEPSCAN-ELISA) [1] | Binding of serum 37 to looped/cyclic peptide (PEPSCAN-ELISA) [1] | Binding of serum London to linear peptides of protein X1 of SARS-CoV Urbani [1] | Binding of serum SARS-yellow to looped/cyclic peptide (PEPSCAN-ELISA) [1] | Binding of a rabbit serum to looped peptides [2]
0.6: Binding of serum 2 to linear peptides of protein X1 of SARS-CoV Urbani [1] | Binding of serum 37 to linear peptides of protein X1 of SARS-CoV Urbani [1] | Binding of serum 62 to linear peptides of protein X1 of SARS-CoV Urbani [1] | Binding of Control serum Blood-bank to linear peptides [3] | Binding of Control serum LUMC to linear peptides [3] | Binding of Control serum LUMC to looped peptides [3]

VYHITVSQIQLSLLK
0.2: Binding of serum 1b to looped/cyclic peptides of protein X2 of SARS-CoV Urbani [1] | Binding of serum 2 to looped/cyclic peptides of protein X2 of SARS-CoV Urbani [1] | Binding of serum SARS-green to linear peptides of protein X2 [1]
1.3: Binding of serum London to looped/cyclic peptides of protein X2 of SARS-CoV Urbani [1]
0.9: Binding of a rabbit serum to linear peptides [2]
0.5: Binding of serum 1a to looped/cyclic peptides of protein X2 of SARS-CoV Urbani [1] | Binding of serum 1b to linear peptides of protein X2 [1] | Binding of serum 2 to linear peptides of protein X2 [1] | Binding of serum 6 to linear peptides of protein X2 [1] | Binding of Control serum Blood-bank to linear peptides [3]
0.3: Binding of serum SARS-green to looped/cyclic peptides of protein X2 of SARS-CoV Urbani [1] | Binding of serum SARS-yellow to looped/cyclic peptides of protein X2 of SARS-CoV Urbani [1]
0.6: Binding of serum 1a to linear peptides of protein X2 [1] | Binding of serum 6 to looped/cyclic peptides of protein X2 of SARS-CoV Urbani [1] | Binding of serum 62 to looped/cyclic peptides of protein X2 of SARS-CoV Urbani [1] | Binding of Control Serum Blood-Bank to Looped peptides [3]
0.7: Binding of serum 37 to linear peptides of protein X2 [1] | Binding of serum SARS-yellow to linear peptides of protein X2 [1] | Binding of Control serum LUMC to linear peptides [3]
0.4: Binding of serum 37 to looped/cyclic peptides of protein X2 of SARS-CoV Urbani [1] | Binding of serum 62 to linear peptides of protein X2 [1] | Binding of serum London to linear peptides of protein X2 [1] | Binding of a rabbit serum to looped peptides [2] | Binding of Control serum LUMC to looped peptides [3]
